Reference: paper PMC6682311 (ChemMedChem, 2019)

Legend:
[1] = test system: M. smegmatis mc^2155 (ATCC 700084); assay: Broth microdilution determination of minimum inhibitory concentrations; assay type: cell-based, Mycobacterium smegmatis
[2] = test system: M. smegmatis biofilms; assay: Biofilm inhibition assay; assay type: cell-based, Mycobacterium smegmatis
[3] = test system: M. smegmatis biofilms; assay: Synergy dispersion assay of compound with INH/RIF on pre-formed biofilms; assay type: cell-based, Mycobacterium smegmatis; settings: INH 256 + RIF 128 µg mL^−1
[4] = in vitro; settings: mouse, plasma, pH 7.4
[5] = Microsome stability assay; settings: male, CD-1, mouse, microsomes, pH 7.4
[6] = in vitro; settings: male, CD-1, mouse, microsomes, pH 7.4
[7] = Table 3, trifluoromethyl 2-AIs, no unit printed for these values

Row | Structure (SMILES) | MIC [1, 7] | fold reduction in EC50 with antibiotics versus compound alone [3] | half-life at 100 µM [4] | half-life at 100 µM [5] | other results
1 | CCCCOc1ccc(-c2nc(N)[nH]c2C(F)(F)F)cc1 [Compound 12i, 4-(4-Butoxyphenyl)-5-(trifluoromethyl)-1H-imidazol-2-amine] | 200 | – | – | – | –
2 | CCCCCOc1ccc(-c2nc(N)[nH]c2C(F)(F)F)cc1 [Compound 12j, 4-(4-(Pentyloxy)phenyl)-5-(trifluoromethyl)-1H-imidazol-2-amine] | 200 | four-fold reduction | 4.8 h | 1.02 h | IC50 ([2]; Table 3): 7.4 ± 0.6 µM
3 | CCCCCCc1ccc(-c2nc(N)[nH]c2C(F)(F)F)cc1 [Compound 12g, 4-(4-Hexylphenyl)-5-(trifluoromethyl)-1H-imidazol-2-amine] | – | three-fold reduction | 4.43 h | 0.978 h | IC50 ([2]; Table 2, highest concentration tested 50 µM): 6.8 ± 0.9 µM; MIC ([1]; Table 2, 4,5 substituted 2-AIs, unit printed in text b20 only): >200 µM
4 | CCCOc1ccc(-c2nc(N)[nH]c2C(F)(F)F)cc1 [Compound 12h, 4-(4-Propoxyphenyl)-5-(trifluoromethyl)-1H-imidazol-2-amine] | 200 | – | – | – | –
5 | CCOc1ccc(NC(C)=O)cc1 [Phenacetin] | – | – | – | – | half-life at 100 µM [6]: 0.59 h
6 | CC(C)NCC(O)COc1cccc2ccccc12 (centres unmarked) [Propanolol, reference compound] | – | – | 0.343 h | – | –
